Test results from patent publication US20060205716A1, “Microbicidal agents” (priority 2003, published 2006).

What was measured:
Pseudomonas fluorescens = test: Minimum inhibitory concentration / synergism test with test germ Pseudomonas fluorescens; assay type: cell-based; conditions: pure active compound applied on its own
Description: The observed synergism of the mixtures according to the invention can be determined by the following mathematical approach (cf. F. C. Kull, P. C. Elisman, H. D. Sylwestrowicz and P. K. Mayer, Appl. Microbiol. 9, 538 (1961): [formula] where • Qa=the amount of component A in the active compound mixture required to achieve the desired effect, i.e. no microbial growth, • QA=the amount of component A which, applied on its own, suppresses the growth of the microorganisms, • Qb=the amount of component B in the active compound mixture which suppresses the growth of the microorganisms, and • […]=the amount of component B which, applied on its own, suppresses the growth of the microorganisms.
A synergistic index of SI<1, in accordance with the above formula, indicates a synergistic effect for the active compound mixture.
The minimum inhibitory concentration of the active compound combinations listed in Table 1 were examined using the test germ Pseudomonas fluorescens

[1] = system: yeasts (Rhodotorula rubra); test: Preservation of a cooling lubricant emulsion, repeated weekly contamination: yeasts; conditions: limit <10^3-4 CFU/g, maximum test duration 10 weeks
Description: (§1) What was examined was the preserving action of CMC/MIT mixtures according to the invention in a cooling lubricant emulsion (5% mineral oil/emulsifier concentrate/95% water). To this end, biocide-free and perserved samples of a cooling lubricant emulsion were repeatedly, at weekly intervals, exposed to microbiological stress using the following microorganisms:
Yeasts: • Rhodotorula rubra
(§2) In each case, the bacteria were added separately from the yeasts/moulds.
(§3) The maximum duration of the test was 10 weeks (=10 contaminations), if the following limits were not exceeded during the weekly determination of the number of germs:
(§4) yeasts/moulds<10^3-4 CFU/g.

[2] = system: moulds (Acremonium strictum, Fusarium solani, Geotrichum candidum); test: Preservation of a cooling lubricant emulsion, repeated weekly contamination: moulds; conditions: limit <10^3-4 CFU/g, maximum test duration 10 weeks
Description: as §1
Moulds: • Acremonium strictum • Fusarium solani • Geotrichum candidum
as §2, §3, §4

[3] = system: bacteria (Pseudomonas aeruginosa, P. fluorescens, P. oleovorans, P. rubescens, P. stutzeri, Alcaligenes faecalis, Citrobacter freundii, Corynebacterium sp); test: Preservation of a cooling lubricant emulsion, repeated weekly contamination: bacteria; conditions: limit <10^6 CFU/g, maximum test duration 10 weeks
Description: as §1
Bacteria: • Pseudomonas aeruginosa • Pseudomonas fluorescens • Pseudomonas oleovorans • Pseudomonas rubescens • Pseudomonas stutzeri • Alcaligenes faecalis • Citrobacter freundii • Corynebacterium sp
as §2
The maximum duration of the test was 10 weeks (=10 contaminations), if the following limits were not exceeded during the weekly determination of the number of germs: […]

[4] = 0.01% MIT based on cooling lubricant emulsion
[5] = 0.15% CMC based on cooling lubricant emulsion

With Cn1sccc1=O [MIT, 2-methyl-2H-isothiazol-3-one] the “Amount of pure active compounds required to suppress growth (QA, QB)” value (Pseudomonas fluorescens) was 5 (QB) ppm, the “number of weeks without colonization: yeasts” value [1, 4] was 8 weeks and the “number of weeks without colonization: moulds” value [2, 4] was 5 weeks. For the same compound, the “number of weeks without colonization: bacteria” value [3, 4] was 8 weeks.

Cc1cc(O)ccc1Cl [CMC, p-chloro-m-cresol] was tested, and the “Amount of pure active compounds required to suppress growth (QA, QB)” value (Pseudomonas fluorescens) was 150 (QA) ppm, the “number of weeks without colonization: yeasts” value [1, 5] was 10 weeks and the “number of weeks without colonization: moulds” value [2, 5] was 10 weeks. For the same compound, the “number of weeks without colonization: bacteria” value [3, 5] was 3 weeks.
